Measured values as given in patent US20180141987A1, “Novel Synthetic Antimicrobial Peptides” (priority 2014, published 2018).
In brackets after ≈: the same amount, converted by molar mass. Read-outs that look alike come from different tables or passages of the source. No end group written: not given here.

How the values were obtained:
Aspergillus niger = tested on: Aspergillus niger
Procedure: (§1) iii. In Vitro Antifungal Assays • In vitro antifungal assays were performed in RPMI-1640 medium by broth micro dilution according to the Clinical and Laboratory Standards Institute (CLSI, formerly NCCL) methods M27-A3 and M-38-A2. […] Amphotericin B was used as positive control.

Candida albicans = tested on: Candida albicans
Procedure: as §1

Cryptococcus = tested on: Cryptococcus
Procedure: as §1

Fusarium oxysoprum = tested on: Fusarium oxysoprum
Procedure: as §1

Neurospora crassa = tested on: Neurospora crassa
Procedure: as §1

Ustilago maydis = tested on: Ustilago maydis
Procedure: as §1

Staphylococcus aureus = test: microbe, parasite or virus in culture; type: cell-based
Pseudomonas aeruginosa = test: microbe, parasite or virus in culture; type: cell-based
Escherichia coli = test: microbe, parasite or virus in culture; type: cell-based
Salmonella enterica = test: Inhibitory activity against bacteria (MIC 90); type: cell-based
Candida albicans cells [1] = test: Membrane damage (propidium iodide fluorescence); type: cell-based; settings: peptides at their respective MICs, FIG. 6
Procedure: (§2) FIG. 6 depicts the membrane damage and reactive oxygen species (ROS) generation by the instant peptides (a) Untreated Control, (b) positive control (c) […] (known peptide sequence, not novel, not to be covered in the invention, was used only for comparison), (d)Seq IDNo. 2, (e) Seq IDNo. 3 and (f) Seq IDNo. 1, after incubation of peptides at their respective MICs with the Candida albicans cells. i. Membrane Damage and ROS Generation • The membrane damage and formation of ROS (Reactive oxygen species) are the antifungal mechanisms of a number of antimicrobial peptides. The membrane damage (middle panel) and ROS generation by the instant peptides (right panel) was monitored after incubation of peptides at their respective MICs with the Candida albicans cells as depicted in FIG. 6(a-f). A red fluorescence resulting from the membrane impermeable DNA binding dye propidium iodide was observed indicating the membrane damage in the cells due to action of peptides under study. A green fluorescence resulting from the oxidation of dye Dichloro-dihydro-fluorescein diacetate DCFH-DA (non-fluorescent molecule) into DCF 2',7'-dichlorofluorescein. (fluorescent molecule) was observed indicating the presence of ROS.

Candida albicans cells [2] = test: ROS generation (DCFH-DA fluorescence); type: cell-based; settings: peptides at their respective MICs, FIG. 6
Procedure: as §2

Yeast-Hypha transition = Yeast-Hypha transition inhibition; type: cell-based; settings: at 4 μg/ml; Table 10 has no title
Procedure: ii. Yeast-Hypha Transition Inhibition. • The peptides were also tested for the Yeast-Hypha transition inhibition. In many human and plant pathogenic fungi direct correlation between the ability of fungus to switch between yeast (Y) and hypha (H) forms and pathogenicity have been reported (Jacobsen et al., 2012; Thompson et al., 2011; Nadal et al., 2008).

[3] = tested on: human and plant pathogens; test: In vitro antifungal assays, all cultures tested; type: cell-based; settings: human and plant pathogenic fungi
Procedure: as §1

human erythrocyte = test: Hemolytic activity, release of haemoglobin from erythrocyte suspensions in PBS; type: cell-based; settings: human erythrocytes
Procedure: The toxicity of the present cationic, alpha-helical antimicrobial peptides on blood cells to determine their suitability for systemic application was performed. Lysis of erythrocyte membranes was determined by monitoring the release of haemoglobin from human erythrocyte suspensions in PBS, in relation to complete (100%) haemolysis. Table 13(a) provides the % hemolytic activity observed when a series of concentrations of the present peptides were brought in contact with erythrocytes. There was absence of any hemolytic activity upto concentrations in the range of 130 to 200 μg/mL. However at concentration above 250 μg/mL, a minimal level of hemolysis was observed.

MTT assay, cytotoxicity = type: cell-based, human; settings: human, HeLa cells, concentration not given
Procedure: (§3) The cytolytic acivity of the present peptides was assessed by the MTT (3-(4,5-dimethylthiazol-2-yl)-2,5-diphenyltetrazolium bromide) assay against human cell lines (Hela cells). The cytotoxicity of on HeLa cells was assessed Approximately 10^4 cells per well were seeded in a 96-well plate and incubated for 12-16 h at 37° C.

Hela cells = test: MTT assay, cytotoxicity; type: cell-based, human; settings: concentration not given
Procedure: as §3

[4] = tested on: Gram positive and Gram negative bacteria; test: Inhibitory activity against bacteria, all cultures; type: cell-based

Compound	Y-H transition inhibition (Yeast-Hypha transition) [%]	MIC 90 (Aspergillus niger) [µg/mL]	MIC 90 (Candida albicans) [µg/mL]	MIC 90 (Cryptococcus) [µg/mL]	MIC 90 (Fusarium oxysoprum) [µg/mL]	MIC 90 (Neurospora crassa) [µg/mL]	MIC 90 (Ustilago maydis) [µg/mL]	Antifungal potency in words, all the cultures tested [3]	MIC 90 (Staphylococcus aureus) [µg/mL]	MIC 90 (Pseudomonas aeruginosa) [µg/mL]	MIC 90 (Escherichia coli) [µg/mL]	MIC 90 (Salmonella enterica) [µg/mL]	Hemolytic activity (human erythrocyte; 256 μg/mL) [%]	Hemolytic activity (human erythrocyte; 512 μg/mL)	Hemolytic activity (human erythrocyte; 1024 μg/mL) [%]	viability (MTT assay, cytotoxicity) [%]	O.D. (Treated Cells) (Hela cells)	also measured
C[C@@H]1[C@H](O)[C@@H](C)/C=C/C=C/C=C/C=C/C=C/C=C/C=C/[C@H](O[C@@H]2O[C@H](C)[C@@H](O)[C@H](N)[C@@H]2O)C[C@@H]2O[C@](O)(C[C@@H](O)C[C@@H](O)[C@H](O)CC[C@@H](O)C[C@@H](O)CC(=O)O[C@H]1C)C[C@H](O)[C@H]2C(=O)O [Ampho B, Amphotericin B, reference compound]	–	–	–	–	–	–	–	–	–	–	–	–	–	–	–	–	–	MIC 90 (Aspergillus niger; Aspergillus niger, RPMI-1640): 8 µg/mL (≈ 8.66 µM); MIC 90 (Candida albicans; Candida albicans, RPMI-1640): 4 µg/mL (≈ 4.33 µM); MIC 90 (Cryptococcus; Cryptococcus, RPMI-1640): 4 µg/mL (≈ 4.33 µM); MIC 90 (Fusarium oxysoprum; Fusarium oxysoprum, RPMI-1640): 8 µg/mL (≈ 8.66 µM); MIC 90 (Neurospora crassa; Neurospora crassa, RPMI-1640): 4 µg/mL (≈ 4.33 µM); MIC 90 (Ustilago maydis; Ustilago maydis, RPMI-1640): 4 µg/mL (≈ 4.33 µM)
CC1(C)S[C@@H]2[C@H](NC(=O)[C@H](N)c3ccccc3)C(=O)N2[C@H]1C(=O)O [Ampicillin, ampicillin, reference compound]	–	–	–	–	–	–	–	–	–	–	–	–	–	–	–	–	–	MIC 90 (Staphylococcus aureus; Staphylococcus aureus, read-out: MIC 90): 2 µg/mL (≈ 5.72 µM); MIC 90 (Pseudomonas aeruginosa; Pseudomonas aeruginosa, read-out: MIC 90): 2 µg/mL (≈ 5.72 µM); MIC 90 (Escherichia coli; Escherichia coli, read-out: MIC 90): 4 µg/mL (≈ 11.4 µM); MIC 90 (Salmonella enterica; read-out: MIC 90): 4 µg/mL (≈ 11.4 µM)
FKLRAKIKVRLRAKIKL [D4E1, reference compound]	95.2	16	8	4	16	8	32	most potent	2	2	2	–	–	–	–	–	–	Relative potency in membrane damage and ROS generation (Candida albicans cells [1]): more potent; ROS generation (Candida albicans cells [2]): higher
FRLKFHLKF-NH2 [Seq Id No: 2]	–	16	8	4	8	8	16	–	2	2	2	2	2	3.2%^	7	100	1.0185	–
VLKKLKKLC-NH2 [Seq Id No: 3]	87.5	16	64	16	32	16	32	moderate activity	4	4	2	2	2	2.9%	5.7	88	0.8325	Potency towards Gram positive versus Gram negative bacteria [4]: higher potency towards Gram positive
